Source: article PMC5121239, “Muscle-Type Nicotinic Receptor Modulation by 2,6-Dimethylaniline, a Molecule Resembling the Hydrophobic Moiety of Lidocaine” (Frontiers in Molecular Neuroscience, 2016)

Columns and labels:
[1] = biological target: T1, muscle-type nicotinic acetylcholine receptor (nAChR) (Torpedo marmorata, UniProt P02711+Q6S3H8+Q6S3H9+Q6S3I0); assay: two-electrode voltage clamp in Xenopus oocytes, agonist concentration-response; type: cell-based
T1 construct: gene CHRNA1; purified electroplax nAChR reconstituted in asolectin lipids and microtransplanted to Xenopus oocytes; with nAChR beta, gamma and delta subunits (alpha1, alpha2, beta, gamma, delta heteropentamer)
T1 sequence (P02711 25-461): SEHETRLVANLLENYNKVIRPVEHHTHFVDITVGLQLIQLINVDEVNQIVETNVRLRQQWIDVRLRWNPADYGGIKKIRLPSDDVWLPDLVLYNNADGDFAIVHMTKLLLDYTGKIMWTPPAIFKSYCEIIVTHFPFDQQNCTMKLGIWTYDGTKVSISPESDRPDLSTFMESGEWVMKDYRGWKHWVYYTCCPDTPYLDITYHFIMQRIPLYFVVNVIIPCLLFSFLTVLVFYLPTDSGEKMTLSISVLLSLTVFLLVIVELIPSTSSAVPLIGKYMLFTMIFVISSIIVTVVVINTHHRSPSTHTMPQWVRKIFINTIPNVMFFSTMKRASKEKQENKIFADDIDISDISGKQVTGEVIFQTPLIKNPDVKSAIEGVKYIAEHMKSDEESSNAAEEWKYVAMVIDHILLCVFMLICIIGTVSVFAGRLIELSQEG
T1 sequence (Q6S3I0 25-493): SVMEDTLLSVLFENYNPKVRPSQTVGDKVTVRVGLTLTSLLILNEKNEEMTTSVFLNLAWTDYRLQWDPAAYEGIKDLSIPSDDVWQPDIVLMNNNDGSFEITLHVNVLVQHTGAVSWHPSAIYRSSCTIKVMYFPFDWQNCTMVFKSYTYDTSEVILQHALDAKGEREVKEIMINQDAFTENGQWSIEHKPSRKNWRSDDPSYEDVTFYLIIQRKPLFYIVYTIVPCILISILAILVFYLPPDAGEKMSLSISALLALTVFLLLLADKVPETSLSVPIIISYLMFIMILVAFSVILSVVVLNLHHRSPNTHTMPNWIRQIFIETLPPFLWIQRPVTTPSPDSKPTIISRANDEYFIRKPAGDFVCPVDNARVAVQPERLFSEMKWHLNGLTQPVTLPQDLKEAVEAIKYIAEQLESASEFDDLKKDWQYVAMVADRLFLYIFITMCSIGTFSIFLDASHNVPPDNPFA
T1 sequence (Q6S3H9 18-505): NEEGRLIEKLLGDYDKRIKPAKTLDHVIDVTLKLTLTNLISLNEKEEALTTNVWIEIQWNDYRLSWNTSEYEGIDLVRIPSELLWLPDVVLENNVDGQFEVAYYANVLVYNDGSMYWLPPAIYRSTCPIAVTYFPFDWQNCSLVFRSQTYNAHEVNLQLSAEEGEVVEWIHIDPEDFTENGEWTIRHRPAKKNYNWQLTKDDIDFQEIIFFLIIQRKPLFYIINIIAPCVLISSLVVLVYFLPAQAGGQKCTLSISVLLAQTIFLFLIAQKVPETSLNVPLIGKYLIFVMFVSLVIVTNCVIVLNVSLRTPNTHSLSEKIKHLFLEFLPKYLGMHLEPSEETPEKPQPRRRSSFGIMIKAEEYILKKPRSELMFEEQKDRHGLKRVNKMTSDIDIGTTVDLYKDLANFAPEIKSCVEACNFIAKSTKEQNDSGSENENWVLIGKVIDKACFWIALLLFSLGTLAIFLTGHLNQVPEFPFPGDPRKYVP
T1 sequence (Q6S3H8 22-522): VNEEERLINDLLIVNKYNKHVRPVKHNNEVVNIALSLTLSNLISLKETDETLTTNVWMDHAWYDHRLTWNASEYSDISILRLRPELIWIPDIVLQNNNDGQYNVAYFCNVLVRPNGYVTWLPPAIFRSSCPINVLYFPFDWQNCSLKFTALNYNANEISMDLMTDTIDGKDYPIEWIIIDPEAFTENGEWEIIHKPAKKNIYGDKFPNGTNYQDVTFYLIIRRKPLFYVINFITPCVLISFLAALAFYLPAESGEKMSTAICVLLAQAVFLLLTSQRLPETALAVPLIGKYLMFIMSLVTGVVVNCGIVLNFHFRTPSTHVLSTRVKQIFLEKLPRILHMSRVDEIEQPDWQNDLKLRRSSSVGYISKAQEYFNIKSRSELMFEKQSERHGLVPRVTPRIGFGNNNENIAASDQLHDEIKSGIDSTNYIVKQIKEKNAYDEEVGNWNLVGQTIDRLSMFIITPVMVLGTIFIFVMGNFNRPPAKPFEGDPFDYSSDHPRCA

[2] = biological target: T1, muscle-type nicotinic acetylcholine receptor (nAChR); assay: two-electrode voltage clamp in Xenopus oocytes, inhibition of current evoked by […] ACh; type: cell-based

Row | SMILES | EC50 [1] [µM] | IC50 [2] [µM]
1 | CC(=O)OCC[N+](C)(C)C [ACh, acetylcholine] | 29 | 
2 | Cc1cccc(C)c1N [DMA, 2,6-dimethylaniline] |  | 2100
